Molecular target: T1, Human BCL-XL protein (N-terminal HiBiT tagged BCL-XL in HT1080 cells) (Homo sapiens, UniProt Q07817)
T1 construct: expressed in transfected cells; host or cells: HT-1080 (ATCC CCL-121), stably transduced with lentivirus pLV-UBC-N-HiBiT-BCL-XL-PGK-puro and selected with puromycin
Assay: HiBiT based degradation assay
Type: cell-based
Details: HT1080 cells expressing N-terminal HiBiT tagged BCL-XL, 6 h, normalized with DMSO control

T1 sequence (Q07817 whole entry): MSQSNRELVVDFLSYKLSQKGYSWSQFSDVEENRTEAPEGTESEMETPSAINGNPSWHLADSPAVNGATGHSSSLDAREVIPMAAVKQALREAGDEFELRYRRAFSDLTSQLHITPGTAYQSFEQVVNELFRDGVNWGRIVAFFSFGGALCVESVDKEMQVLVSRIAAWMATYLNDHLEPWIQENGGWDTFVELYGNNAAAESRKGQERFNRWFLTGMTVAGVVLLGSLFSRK

Row | SMILES | Ymin (6 h)
1 | Cc1ncsc1-c1ccc([C@H](C)NC(=O)[C@@H]2C[C@@H](O)CN2C(=O)[C@@H](NC(=O)CCCCCOc2cccc(-c3ccc(N4CCc5cccc(C(=O)Nc6nc7ccccc7s6)c5C4)nc3C(=O)O)c2C)C(C)(C)C)cc1 [Compound 105a, 6-(8-(Benzo[d]thiazol-2-ylcarbamoyl)-3,4-dihydroisoquinolin-2(1H)-yl)-3-(3-((6-(((S)-1-((2S,4R)-4-hydroxy-2-(((S)-1-(4-(4-methylthiazol-5-yl)phenyl)ethyl)carbamoyl)pyrrolidin-1-yl)-3,3-dimethyl-1-oxobutan-2-yl)amino)-6-oxohexyl)oxy)-2-methylphenyl)picolinic acid] | A (Ymin < 50%)
2 | Cc1ncsc1-c1ccc([C@H](C)NC(=O)[C@@H]2C[C@@H](O)CN2C(=O)[C@@H](NC(=O)CCCCCn2nc(C)c(-c3ccc(N4CCc5cccc(C(=O)Nc6nc7ccccc7s6)c5C4)nc3C(=O)O)c2C)C(C)(C)C)cc1 [Compound 101a, 6-[8-(1,3-benzothiazol-2-ylcarbamoyl)-3,4-dihydro-1H-isoquinolin-2-yl]-3-[1-[6-[[(1S)-1-[(2S,4R)-4-hydroxy-2-[[(1S)-1-[4-(4-methylthiazol-5-yl)phenyl]ethyl]carbamoyl]pyrrolidine-1-carbonyl]-2,2-dimethyl-propyl]amino]-6-oxo-hexyl]-3,5-dimethyl-pyrazol-4-yl]pyridine-2-carboxylic acid] | A (Ymin < 50%)
3 | Cc1ncsc1-c1ccc([C@H](C)NC(=O)[C@@H]2C[C@@H](O)CN2C(=O)[C@@H](NC(=O)CCCCCCCCCNC(=O)c2nc(N3CCc4cccc(C(=O)Nc5nc6ccccc6s5)c4C3)ccc2-c2cnn(Cc3ccccc3)c2C)C(C)(C)C)cc1 [Compound 110a, N-(benzo[d]thiazol-2-yl)-2-(5-(1-benzyl-5-methyl-1H-pyrazol-4-yl)-6-((10-(((S)-1-((2S,4R)-4-hydroxy-2-(((S)-1-(4-(4-methylthiazol-5-yl)phenyl)ethyl)carbamoyl)pyrrolidin-1-yl)-3,3-dimethyl-1-oxobutan-2-yl)amino)-10-oxodecyl)carbamoyl)pyridin-2-yl)-1,2,3,4-tetrahydroisoquinoline-8-carboxamide] | A (Ymin < 50%)

Same assay, conditions: HT1080 cells expressing N-terminal HiBiT tagged BCL-XL, 24 h, normalized with DMSO control

Row | SMILES | Ymin (24 h)
4 | Cc1ncsc1-c1ccc([C@H](C)NC(=O)[C@@H]2C[C@@H](O)CN2C(=O)[C@@H](NC(=O)CCCCCOc2cccc(-c3ccc(N4CCc5cccc(C(=O)Nc6nc7ccccc7s6)c5C4)nc3C(=O)O)c2C)C(C)(C)C)cc1 [Compound 105a, 6-(8-(Benzo[d]thiazol-2-ylcarbamoyl)-3,4-dihydroisoquinolin-2(1H)-yl)-3-(3-((6-(((S)-1-((2S,4R)-4-hydroxy-2-(((S)-1-(4-(4-methylthiazol-5-yl)phenyl)ethyl)carbamoyl)pyrrolidin-1-yl)-3,3-dimethyl-1-oxobutan-2-yl)amino)-6-oxohexyl)oxy)-2-methylphenyl)picolinic acid] | A (Ymin < 50%)
5 | Cc1ncsc1-c1ccc([C@H](C)NC(=O)[C@@H]2C[C@@H](O)CN2C(=O)[C@@H](NC(=O)CC(C)Cc2ccc(Oc3cccc(-c4ccc(N5CCc6cccc(C(=O)Nc7nc8ccccc8s7)c6C5)nc4C(=O)O)c3C)cc2)C(C)(C)C)cc1 (single isomer, unassigned) [Compound 134b, 6-(8-(benzo[d]thiazol-2-ylcarbamoyl)-3,4-dihydroisoquinolin-2(1H)-yl)-3-(3-(4-((R*)-4-(((S)-1-((2S,4R)-4-hydroxy-2-(((S)-1-(4-(4-methylthiazol-5-yl)phenyl)ethyl)carbamoyl)pyrrolidin-1-yl)-3,3-dimethyl-1-oxobutan-2-yl)amino)-2-methyl-4-oxobutyl)phenoxy)-2-methylphenyl)picolinic acid] | A (Ymin < 50%)
6 | Cc1ncsc1-c1ccc(CNC(=O)[C@@H]2C[C@@H](O)CN2C(=O)[C@@H](NC(=O)C2(F)CC2)C(C)(C)SCCCCCCCCCCCCOc2cccc(-c3ccc(N4CCc5cccc(C(=O)Nc6nc7ccccc7s6)c5C4)nc3C(=O)O)c2C)cc1 [Compound 142a] | B (50% ≤ Ymin < 70%)
7 | Cc1ncsc1-c1ccc([C@H](C)NC(=O)[C@@H]2C[C@@H](O)CN2C(=O)[C@@H](NC(=O)C[C@H]2CC[C@H](Oc3cccc(-c4ccc(N5CCc6cccc(C(=O)Nc7nc8ccccc8s7)c6C5)nc4C(=O)O)c3C)CC2)C(C)(C)C)cc1 [Compound 116a, 6-(8-(benzo[d]thiazol-2-ylcarbamoyl)-3,4-dihydroisoquinolin-2 (1H)-yl)-3-(3-(((1S,4r)-4-(2-(((S)-1-((2S,4R)-4-hydroxy-2-(((S)-1-(4-(4-methylthiazol-5-yl)phenyl)ethyl)carbamoyl)pyrrolidin-1-yl)-3,3-dimethyl-1-oxobutan-2-yl)amino)-2-oxoethyl)cyclohexyl)oxy)-2-methylphenyl)picolinic acid] | A (Ymin < 50%)
8 | Cc1ncsc1-c1ccc([C@H](C)NC(=O)[C@@H]2C[C@@H](O)CN2C(=O)[C@@H](NC(=O)CC[C@@H](c2ccc(Oc3cccc(-c4ccc(N5CCc6cccc(C(=O)Nc7nc8ccccc8s7)c6C5)nc4C(=O)O)c3C)cc2)C(F)(F)F)C(C)(C)C)cc1 (relative stereo) [Compound 135a, 6-(8-(benzo[d]thiazol-2-ylcarbamoyl)-3,4-dihydroisoquinolin-2 (1H)-yl)-3-(2-methyl-3-(4-((S)-1,1,1-trifluoro-5-(((S)-1-((2S,4R)-4-hydroxy-2-(((S)-1-(4-(4-methylthiazol-5-yl)phenyl)ethyl)carbamoyl)pyrrolidin-1-yl)-3,3-dimethyl-1-oxobutan-2-yl)amino)-5-oxopentan-2-yl)phenoxy)phenyl)picolinic acid] | A (Ymin < 50%)
9 | Cc1ncsc1-c1ccc([C@H](C)NC(=O)[C@@H]2C[C@@H](O)CN2C(=O)[C@@H](NC(=O)C(F)(F)[C@H]2CC[C@@H](Oc3cccc(-c4ccc(N5CCc6cccc(C(=O)Nc7nc8ccccc8s7)c6C5)nc4C(=O)O)c3C)CC2)C(C)(C)C)cc1 [Compound 144b] | C (Ymin ≥ 70%)
10 | Cc1ncsc1-c1ccc([C@H](C)NC(=O)[C@@H]2C[C@@H](O)CN2C(=O)[C@@H](NC(=O)[C@H](C)CCc2ccc(Oc3cccc(-c4ccc(N5CCc6cccc(C(=O)Nc7nc8ccccc8s7)c6C5)nc4C(=O)O)c3C)cc2)C(C)(C)C)cc1 (single isomer, unassigned) [Compound 143a] | A (Ymin < 50%)

Reference: patent US20250288683A1, “TETRAHYDROISOQUINOLINE HETEROBIFUNCTIONAL BCL-XL DEGRADERS” (Treeline Biosciences, Inc., priority 2022, published 2025)
